{"source": "patent US12708115B2", "about": "“Inground and above ground termite trailing and recruitment products and processes” (Florida Insect Control Group LLC, priority 2023, dated 2026)", "origin": "cited, not measured here", "tested_on": "subterranean termites", "data": [{"smiles": "OCCOc1ccccc1", "note": "[2-phenoxyethanol]", "values": [{"measurement": "soil-treated detection stations hit by termites", "setting": "field, untreated stations 0 of 20", "value": "5 of 20"}, {"measurement": "feeding on cellulose material surrounded by the treatment", "setting": "soil treatment, Prescott thesis", "value": "feed more"}]}]}
